Results on 21 molecules are retold here after US20260021061A1, “ARIADNE AND ANALOGS FOR THE TREATMENT OF NEUROLOGICAL AND NEUROMUSCLAR DISORDERS” (priority 2022, published 2026).

Counter-ions that a name gives are not always drawn. Like-named read-outs stand apart in the source and are kept apart here.

Assay [1] relates to C57BL/6J mice. The experiment in a line: Head twitch response (HTR) in mice. As to conditions: s.c. In kind it is in vivo, mouse. How it is done: All samples were prepared the same day testing was performed. Solids were weighed into small vials and dissolved in USP grade 0.85% saline with addition of 2 molar equivalents of glacial acetic acid. Sonication and gentle heating were applied until complete dissolution. The compounds were subsequently filtered through 0.45 μm filters into a new glass vial. All compounds were administered at a 1 mg/kg subcutaneous dose at a volume of 10 mL/kg of body weight. Volinanserin hydrochloride salt (MDL 100907) was purchased from Toronto Research Chemicals.
All experimental procedures involving animals were approved by an Institutional Animal Care and Use Committee (IACUC) and adhered to principles described in the National Institutes of Health Guide for the Care and Use of Laboratory Animals. The studies were conducted at AAALAC accredited facilities. Animals received regular veterinary care (weekly by institutional veterinarians) including daily health monitoring (by experimenters) of the animals (observing home cage behaviors, nesting, and body weight). All procedures were designed to minimize any stress/distress. Healthy adult male mice C57BL/6J (8-12 weeks, 26-33 g) were purchased from the Jackson Laboratory (Bar Harbor, ME) and housed 5 mice per cage with food and water available ad libitum. Mice were maintained on a 12-h light/dark cycle (lights on 7:00-19:00) and all testing was done in the light cycle. Temperature was kept constant at 22±2° C., and relative humidity was maintained at 50±5%
The head-twitch response evaluation was performed by a trained observer who was blinded to both drug and dose. Mice were moved to the testing room 30 min before the experiment to allow for acclimation. The body weight of each mouse was recorded. Mice were administered either a 1, 3, 10, or 30 mg/kg s.c. dose of compound solution (volume of injection 260-330 μL based on body weight). […] The total number of head-twitches over the 15 minute period were recorded. Five mice were used per dose.
DOI was tested at the doses of 0.3, 1, 3, and 10 mg/kg (s.c., 5 mice per dose) and testing began immediately after administration of the compound. Ariadne was tested at the doses of 1, 3, 10, and 30 mg/kg (s.c., 5 mice per dose) and there was a 10 min interval between treatment and testing.

For assay [2], the system named is C57BL/6J mice. As to the kind of experiment: Open field locomotion in mice. In kind it is in vivo, mouse.
Assay [3] deals with T1, 5-HT2A (Homo sapiens, UniProt P28223). As to the kind of experiment: Radioligand displacement assay. In kind it is binding. (Displacement assays read how much labelled ligand stays bound in the presence of the test substance.)
Description: Therefore, an orthogonal assay measuring calcium flux was also performed for the 5-HT2 receptors (Klein et al., 2020).
Assay [4] addresses T1, 5-HT2A. As to the kind of experiment: IP1 agonism (IP1 formation assay), Cerep, Eurofins. Type of assay: cell-based. The following applies: duplicate averages only. Set-up: purchased Cerep, Eurofins (contract assay). An excerpt:
(§1) FIGS. 8A-B Comparison of 5-HT2A (a) and 5-HT2B (b) receptor in IP1 formation assay for selected compounds, performed at Cerep, Eurofins.
(§2) IP1 agonism summary for selected compounds (duplicate averages only), performed at Cerep, Eurofins.

Assay [5] deals with T2, 5-HT2B (Homo sapiens, UniProt P41595). The experiment in a line: IP1 agonism (IP1 formation assay), Cerep, Eurofins. The following applies: duplicate averages only. Set-up: purchased Cerep, Eurofins (contract assay). Type of assay: cell-based.
Excerpt: as §1, §2

Assay [6] concerns the target T1, 5-HT2A. As to the kind of experiment: G protein (Gq) dissociation BRET assay. Set-up: host or cells: HEK293T (ATCC CRL-11268). Type of assay: cell-based.
The target in assay [7] is T2, 5-HT2B. The experiment in a line: G protein (Gq) dissociation BRET assay. Background: BRET reads energy transfer from a luciferase to a nearby fluorophore.
Description: (§3) All BRET assays were conducted using BRET2 in HEK293T cells (ATCC CRL-11268; mycoplasma-free), which were subcultured in high-glucose DMEM (VWR) supplemented with 10% FBS (Life Technologies).
(§4) Constructs in G protein-dissociation BRET assays were derived from the codon-optimized Tango pcDNA3.1 library (Addgene) with V2tail/TEV/tTA encoding regions deleted to yield “de-Tango” constructs. […] All Gα-Rluc8, Beta, and GFP2-γ constructs were derived from the TRUPATH pcDNA5/FRT/TO library (Addgene).
(§5) Approximately 48 hours before assays, cells were transfected using a reverse transfection method and plated in 1% dFBS at an approximate density of 15,000 cells per well into poly-L-lysine-coated 384-well white assay plates (Grenier Bio-One). For G protein-dissociation assays, cells were transfected in a 1:1:1:1 ratio of receptor: Gα-Rluc8: Beta: GFP2-γ constructs. […] All transfections were prepared in Opti-MEM (Invitrogen) and used a 3:1 ratio of TransIT-2020 (Mirus) uL:ug total DNA.
(§6) On the day of the assay, plates were decanted and 20 uL of drug buffer per well (1×HBSS, 20 mM HEPES, pH 7.4) was added using a Multidrop (ThermoFisher Scientific), and plates were allowed to equilibrate at 37° C. in a humidified incubator before receiving drug stimulation. Drug dilutions of all compounds were performed in McCorvy buffer (1×HBSS, 20 mM HEPES, pH 7.4, supplemented with 0.3% BSA fatty acid free (GoldBio), and 0.03% ascorbic acid). […] Next, plates were incubated at 37° C. in a humidified incubator for 60 minutes or specified time point. Before reading, addition of coelenterazine 400a (5 uM final concentration; Nanolight Technology) was performed by the [sequence]. Immediately after, plates were read at 400 nm Rluc and fluorescent GFP2 emission at 510 nm for BRET2 at 0.8 second per well using a PheraStarFSX (BMB Lab Tech).
(§7) The BRET ratios of 510/400 luminescence were calculated per well and were plotted as a function of drug concentration using Graphpad Prism 5 or 9 (Graphpad Software Inc., San Diego, CA). Data were normalized to % positive control stimulation and analyzed using nonlinear regression “log(agonist) vs. response” to yield Emax and EC50 parameter estimates.
In assay [8] the target is T3, 5-HT2C receptor (Homo sapiens, UniProt P28335).
T3 sequence (P28335 33-458): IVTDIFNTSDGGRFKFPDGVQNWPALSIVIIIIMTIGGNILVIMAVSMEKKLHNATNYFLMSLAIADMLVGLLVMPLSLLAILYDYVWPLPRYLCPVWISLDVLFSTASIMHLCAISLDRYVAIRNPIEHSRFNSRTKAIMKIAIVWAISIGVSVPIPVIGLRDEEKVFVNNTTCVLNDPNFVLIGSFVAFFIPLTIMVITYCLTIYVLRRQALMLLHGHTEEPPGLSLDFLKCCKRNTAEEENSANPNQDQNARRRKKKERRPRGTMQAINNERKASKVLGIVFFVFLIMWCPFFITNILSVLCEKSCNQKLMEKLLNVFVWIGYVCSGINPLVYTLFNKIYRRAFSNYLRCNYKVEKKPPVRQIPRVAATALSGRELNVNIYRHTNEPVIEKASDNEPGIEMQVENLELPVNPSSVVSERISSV
The experiment in a line: G protein (Gq) dissociation BRET assay. As to conditions: read-out: Emax/Gq.
Description: as §3, §4, §5, §6, §7

Assay [9] relates to humans. As to conditions: per oral administration; cited from earlier work.
Where [10] appears, read: EC50 (5-HT2B) (M), Table 7, IP1 agonism.
Where [11] appears, read: EC50 (5-HT2A) (M), Table 7, IP1 agonism.

T1 sequence (P28223 whole entry): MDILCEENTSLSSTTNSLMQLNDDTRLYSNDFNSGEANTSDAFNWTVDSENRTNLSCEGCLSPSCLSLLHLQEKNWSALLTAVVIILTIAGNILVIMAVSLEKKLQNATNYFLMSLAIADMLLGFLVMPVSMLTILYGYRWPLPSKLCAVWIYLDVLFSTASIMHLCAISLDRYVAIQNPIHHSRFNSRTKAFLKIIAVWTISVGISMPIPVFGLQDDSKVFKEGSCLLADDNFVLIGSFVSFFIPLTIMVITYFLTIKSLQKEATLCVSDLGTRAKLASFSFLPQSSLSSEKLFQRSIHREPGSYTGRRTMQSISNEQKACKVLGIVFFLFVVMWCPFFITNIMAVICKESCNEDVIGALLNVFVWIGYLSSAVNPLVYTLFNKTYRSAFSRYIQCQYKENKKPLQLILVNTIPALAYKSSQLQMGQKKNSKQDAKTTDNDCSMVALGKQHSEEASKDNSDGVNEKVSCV
T2 sequence (P41595 whole entry): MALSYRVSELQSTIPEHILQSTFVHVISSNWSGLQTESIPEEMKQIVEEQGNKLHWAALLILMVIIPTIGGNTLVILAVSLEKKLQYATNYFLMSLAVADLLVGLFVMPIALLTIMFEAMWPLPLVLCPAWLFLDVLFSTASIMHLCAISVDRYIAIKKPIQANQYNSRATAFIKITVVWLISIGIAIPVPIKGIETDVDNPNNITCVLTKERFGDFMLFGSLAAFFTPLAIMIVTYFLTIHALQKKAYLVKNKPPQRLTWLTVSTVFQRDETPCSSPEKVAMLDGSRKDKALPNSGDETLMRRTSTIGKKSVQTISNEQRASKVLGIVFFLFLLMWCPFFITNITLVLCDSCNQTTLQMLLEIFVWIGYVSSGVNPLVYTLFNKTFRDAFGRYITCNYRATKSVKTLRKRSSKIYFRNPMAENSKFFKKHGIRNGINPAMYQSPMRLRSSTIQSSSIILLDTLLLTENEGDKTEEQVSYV

On to `CCCc1cc(OC)c(CC(C)N)cc1OC` (racemic) [Compound 44, 1-(2,5-dimethoxy-4-propylphenyl) propan-2-amine, reference compound], for which, in assay [1], the HTR response result is on record as “robust dose-dependent HTR response”, the “dose of maximum (peak) HTR” value was 1 mg/kg and the “time to maximum HTR frequency post-drug administration” value worked out at 10 min. The “time in the center of the arena” value in assay [2] (open field) is “trend for spending less time in the center”. Also, the effects on locomotion result in assay [2] (s.c., trending toward increased locomotion at HTR peak dose (1 mg/kg)) was “minor to no effects on locomotion”.
For the molecule `CC[C@H](N)Cc1cc(OC)c(C)cc1OC` [(S)-Ariadne], the affinity in [3], expressed as Ki, was 220 nM.
`CCC(N)Cc1cc(OC)c(C#N)cc1OC` (centres unmarked) [Compound 4, 4-(2-aminobutyl)-2,5-dimethoxybenzonitrile trifluoroacetate] returned an EC50 in [4] (5-HT2a (IP1 agonism), Table 2) of 1.1e-05 M.
Turning to `CCSc1cc(OC)c(CC(N)CC)cc1OC` (centres unmarked) [Compound 27, 1-(4-(ethylthio)-2,5-dimethoxyphenyl)butan-2-amine], the EC50 in assay [5] (5-HT2b (IP1 agonism), Table 2) was 6.3e-07 M; in assay [4] (5-HT2a (IP1 agonism), Table 2), 5.3e-08 M.
On the same counts, the results for `CCC(N)Cc1cc(OC)c(SC)cc1OC` (centres unmarked) [Compound 28, 1-(2,5-dimethoxy-4-(methylthio)phenyl)butan-2-amine] are 6.6e-08 M and 1.6e-07 M.
The molecule `CCC(N)Cc1cc(OC)c(C2CC2)cc1OC` (centres unmarked) [Compound 30, 1-(4-cyclopropyl-2,5-dimethoxyphenyl)butan-2-amine] displayed an EC50 in [4] (5-HT2a (IP1 agonism), Table 2) of 3.7e-06 M.
Regarding `CCC(N)Cc1cc(OC)c(Br)cc1OC` (centres unmarked) [Compound 31, 1-(4-bromo-2,5-dimethoxyphenyl)butan-2-amine], the EC50 in [5] (5-HT2b (IP1 agonism), Table 2) stood at 5.5e-06 M; in assay [4] (5-HT2a (IP1 agonism), Table 2) it was 9e-08 M.
For `CCC(N)Cc1cc(OC)c(S(C)(=O)=O)cc1OC` (centres unmarked) [Compound 33, 1-(2,5-dimethoxy-4-(methylsulfonyl)phenyl)butan-2-amine trifluoroacetate], in that order: 2.5e-05 M and 3.4e-06 M.
As to `CCC(N)Cc1cc(OC)c(I)cc1OC` (centres unmarked) [Compound 34, 1-(4-iodo-2,5-dimethoxyphenyl)butan-2-amine], the EC50 stood at 1.8e-05 M in assay [5] (5-HT2b (IP1 agonism), Table 2); 9.7e-06 M in assay [4] (5-HT2a (IP1 agonism), Table 2); 16 nM in assay [6] (EC50 (EC50/Gq), Gq dissociation, Gq dissociation BRET). For the same molecule, in assay [6] (EC50/Gq comparison), the “increase in Gq potency compared to Ariadne” value is over 10 fold.
For `CCc1cc(OC)c(CC(N)CC)cc1OC` (centres unmarked) [Compound 35, 1-(4-ethyl-2,5-dimethoxyphenyl)butan-2-amine], the EC50 in assay [5] (5-HT2b (IP1 agonism), Table 2) came out at 5.7e-07 M; in assay [4] (5-HT2a (IP1 agonism), Table 2) it was 1.9e-06 M.
For the molecule `CCOc1cc(CC(N)CC)c(OC)cc1C(F)(F)F` (centres unmarked) [Compound 36, 1-(5-ethoxy-2-methoxy-4-(trifluoromethyl)phenyl)butan-2-amine], the EC50 amounted to 9.5e-07 M in assay [5] (5-HT2b (IP1 agonism), Table 2) and 2.8e-07 M in [4] (5-HT2a (IP1 agonism), Table 2).
On to `CCC(N)Cc1cc(OC)c(COC)cc1OC` (centres unmarked) [Compound 37, 1-(2,5-dimethoxy-4-(methoxymethyl)phenyl)butan-2-amine], for which the HTR response result in [1] is reported as “only residual HTR”. Moreover, the “potency at 5-HT2B compared to Ariadne” value in [7] (Gq dissociation) is “twice as potent”. Also, the Emax was 43% in assay [7] (read-out: Emax/Gq); 82% in [8]; 78% in assay [6] (Gq dissociation BRET, normalized to 5-HT, read-out: Emax (Emax/Gq) relative to 5-HT). Further, in assay [6] (Gq dissociation), the “less potent at 5-HT2A compared to Ariadne” value is given as “approximately 2 fold”.
For `COc1cc(CC(N)C2CC2)c(OC)cc1C` (centres unmarked) [Compound 38, 1-cyclopropyl-2-(2,5-dimethoxy-4-methylphenyl)ethan-1-amine], the EC50 in assay [5] (Table 2, read-out: 5-HT2b (IP1 agonism)) is 2.1e-05 M; in [4] (Table 2, read-out: 5-HT2a (IP1 agonism)), 9.7e-06 M.
On to `CCCC(N)Cc1cc(OC)c(C)cc1OC` (centres unmarked) [Compound 39, 1-(2,5-dimethoxy-4-methylphenyl) pentan-2-amine], for which the HTR response result in assay [1] is recorded as “indistinguishable from vehicle”. The molecule further gave an EC50 in [5] (5-HT2b (IP1 agonism), Table 2) of 2.3e-05 M.
On to `CCC(N)Cc1c(OC)cc(C)cc1OC` (centres unmarked) [Compound 40, 1-(2,6-dimethoxy-4-methylphenyl)butan-2-amine], for which the EC50 in assay [4] (5-HT2a (IP1 agonism), Table 2) was determined as 1e-05 M.
`CCC(N)Cc1cc(OC)c(Cl)cc1OC` (centres unmarked) [Compound 41, 1-(4-chloro-2,5-dimethoxyphenyl)butan-2-amine]: the EC50 worked out at 1.4e-05 M in assay [5] (5-HT2b (IP1 agonism), Table 2) and 1.9e-07 M in [4] (5-HT2a (IP1 agonism), Table 2).
The molecule `CCCc1cc(OC)c(CC(N)CC)cc1OC` (centres unmarked) [Compound 42, 1-(2,5-dimethoxy-4-propylphenyl)butan-2-amine] showed an EC50 in assay [4] (5-HT2a (IP1 agonism), Table 2) of 2.1e-07 M.
In the case of `CCC(N)Cc1cc(OC)c(C(C)(F)F)cc1OC` (centres unmarked) [Compound 50, 1-(4-(1,1-difluoroethyl)-2,5-dimethoxyphenyl)butan-2-amine], the EC50 is 1.1e-07 M in [5] (setting [10]) and 2.5e-08 M in assay [4] (setting [11]).
For `CCC(N)Cc1cc(OC)c(C(F)(F)CC)cc1OC` (centres unmarked) [Compound 53, 1-(4-(1,1-difluoropropyl)-2,5-dimethoxyphenyl)butan-2-amine], in that order: 1.9e-07 M and 5.7e-08 M.
The molecule `CCC(N)Cc1cc(OC)c(CC(C)(F)F)cc1OC` (centres unmarked) [Compound 58, 1-(4-(2,2-difluoropropyl)-2,5-dimethoxyphenyl)butan-2-amine] gave an EC50 in [4] (setting [11]) of 4.3e-06 M.
`COc1cc(CC(C)N)c(OC)cc1C` (centres unmarked) [DOM, 2,5 Dimethoxy-4-methylamphetamine, reference compound]: the “potency in humans relative to mescaline” value in assay [9] is reported as “approximately 100 times”.
